# Results from paper PMC6437269, “OXA-48-Mediated Ceftazidime-Avibactam Resistance Is Associated with Evolutionary Trade-Offs” (mSphere, 2019).
# B1: OXA-48:P68A (enzyme)
# chain: KEWQENKSWNAHFTEHKSQGVVVLWNENKQQGFTNNLKRANQAFLAASTFKIPNSLIALDLGVVKDEHQVFKWDGQTRDIATWNRDHNLITAMKYSVVPVYQEFARQIGEARMSKMLHAFDYGNEDISGNVDSFWLDGGIRISATEQISFLRKLYHNKLHVSERSQRIVKQAMLTEANGDYIIRAKTGYSTRIEPKIGWWVGWVELDDNVWFFAMNMDMPTSDGLGLRQAITKEVLKQEKIIP
# notes: also called OXA-48:P68A-CAZ; OXA-48:P68A-AVI; source: E. coli Rosetta 2(DE3)/pLysS, purified (>95% purity)
# What was measured:
# [1] = system: CC(C)(O/N=C(\C(=O)N[C@@H]1C(=O)N2C(C(=O)[O-])=C(C[n+]3ccccc3)CS[C@H]12)c1csc(N)n1)C(=O)O; assay: purified protein, by the assay type; settings: other: substrate hydrolysis, 25°C, 0.1 M phosphate buffer pH 7.0, 50 mM NaHCO3, error = 95% CI
# [2] = system: CC1(C)S[C@@H]2[C@H](NC(=O)[C@H](N)c3ccccc3)C(=O)N2[C@H]1C(=O)O; assay: purified protein, by the assay type; settings: other: substrate hydrolysis, 25°C, 0.1 M phosphate buffer pH 7.0, 50 mM NaHCO3, error = 95% CI
# [3] = system: CCN1CCN(C(=O)N[C@@H](C(=O)N[C@@H]2C(=O)N3[C@@H]2SC(C)(C)[C@@H]3C(=O)O)c2ccccc2)C(=O)C1=O; assay: purified protein, by the assay type; settings: other: substrate hydrolysis, 25°C, 0.1 M phosphate buffer pH 7.0, 50 mM NaHCO3, error = 95% CI
# [4] = system: CO/N=C(\C(=O)N[C@@H]1C(=O)N2C(C(=O)[O-])=C(C[N+]3(C)CCCC3)CS[C@H]12)c1csc(N)n1; assay: purified protein, by the assay type; settings: other: substrate hydrolysis, 25°C, 0.1 M phosphate buffer pH 7.0, 50 mM NaHCO3, error = 95% CI
# [5] = system: C[C@@H](O)[C@H]1C(=O)N2C(C(=O)O)=C(SCCN=CN)C[C@H]12; assay: purified protein, by the assay type; settings: other: substrate hydrolysis, 25°C, 0.1 M phosphate buffer pH 7.0, 50 mM NaHCO3, error = 95% CI
# [6] = system: C[C@@H](O)[C@H]1C(=O)N2C(C(=O)O)=C(S[C@@H]3CN[C@H](C(=O)N(C)C)C3)[C@H](C)[C@H]12; assay: purified protein, by the assay type; settings: other: substrate hydrolysis, 25°C, 0.1 M phosphate buffer pH 7.0, 50 mM NaHCO3, error = 95% CI
# [7] = system: O=C(Cc1cccs1)N[C@@H]1C(=O)N2C(C(=O)O)=C(/C=C/c3ccc([N+](=O)[O-])cc3[N+](=O)[O-])CS[C@H]12; assay: purified protein, by the assay type; settings: other: substrate hydrolysis, 25°C, 0.1 M phosphate buffer pH 7.0, 50 mM NaHCO3, error = 95% CI
# E. coli MG1655 (MP100) = assay: microbe, parasite or virus in culture; assay type: cell-based, Escherichia coli; settings: Escherichia coli, MG1655; Table 6; MP100; read-out: MIC
# Method: (§1) For MIC determination, single colonies were suspended in 0.9% saline buffer to a 0.5 McFarland standard and further diluted 1:100 in MH broth. Fifty microliters of the bacterial suspension was loaded onto in-house-designed and premade Sensititre microtiter plates (TREK Diagnostic Systems/Thermo Fisher Scientific, East Grinstead, United Kingdom). The plates were incubated for 20 h at 37°C. Antibiotic susceptibility testing was performed in duplicates.
# [8] = system: MP101 (MP100 transformed with p50579417_3_OXA-48); assay: MIC determination, MP101 (MG1655 with native OXA-48 plasmid); assay type: cell-based, Escherichia coli; settings: Escherichia coli; Table 6; MP101, native plasmid; read-out: MIC
# From the text: Mueller-Hinton (MH) agar and broth were purchased from Thermo Fisher Scientific (East Grinstead, United Kingdom). Luria-Bertani (LB) broth, LB agar, ampicillin, amoxicillin, cefepime, CAZ, imipenem, meropenem, piperacillin, and tazobactam were obtained from Sigma-Aldrich (St. Louis, MO). Nitrocefin was purchased from Merck (Darmstadt, Germany). The characteristics of the clinical E. coli strain 50579417 harboring the OXA-48 plasmid (p50579417_3_OXA-48) have been described previously ([61], [62]). The plasmid p50579417_3_OXA-48 was conjugated into rifampin-resistant E. coli TOP10 and subsequently isolated using a plasmid mini-purification kit (Qiagen, Germany). E. coli MG1655 (DA4201) was electroporated with p50579417_3_OXA-48 as published previously ([63]). Transformants positive for blaOXA-48 were checked by PCR using REDTaq ready mix (Sigma-Aldrich, St. Louis, MO) and preOXA-48 primers ([61]).
# as §1
# E. coli TOP10 = assay: microbe, parasite or virus in culture; assay type: cell-based; settings: Escherichia coli, Table 3, read-out: MIC
# Method: as §1
# [9] = system: MP104 (E. coli TOP10 expressing native OXA-48); assay: MIC determination, TOP10 expressing native OXA-48 (MP104); assay type: cell-based; settings: Escherichia coli; Table 3; MP104, native OXA-48 in pCR-blunt II TOPO
# Method: as §1
# For a functional resistance profile, the native and mutated blaOXA-48 genes were cloned in the pCR-blunt II-TOPO vector (Invitrogen, CA) and expressed in E. coli TOP10 (Invitrogen, CA). The PCR product was obtained by Phusion High Fidelity PCR mastermix with High Fidelity buffer (New England Biolabs, MA) and preOXA-48 primers ([61]). Transformants were selected on LB agar plates containing 50 or 100 mg/liter ampicillin. Insertion size was verified by Sanger sequencing using M13 forward (5′-[…]-3′) and reverse (5′-[…]-3′) primers.
# [10] = system: MP105 (E. coli TOP10 expressing OXA-48:P68A); assay: microbe, parasite or virus in culture; assay type: cell-based; settings: Escherichia coli; Table 3; MP105, OXA-48:P68A in pCR-blunt II TOPO
# [11] = system: MP107 (MP100 transformed with p50579417_3_OXA-48-CAZ); assay: MIC determination, MP107 (MG1655 with CAZ-adapted plasmid); assay type: cell-based; settings: Escherichia coli; Table 6; MP107, adapted plasmid p50579417-OXA-48-CAZ
# Method: as §1
# [12] = system: MP108 (MP100 transformed with p50579417_3_OXA-48-CAZ-AVI); assay: MIC determination, MP108 (MG1655 with CAZ-AVI-adapted plasmid); assay type: cell-based; settings: Escherichia coli; Table 6; MP108, adapted plasmid p50579417-OXA-48-CAZ-AVI
# Method: as §1
# OXA-48:P68A [13] = target: T1, OXA-48:P68A (Klebsiella pneumoniae, UniProt Q6XEC0, P68A); assay: Steady-state enzyme kinetics, OXA-48:P68A; assay type: biochemical; settings: substrate hydrolysis, 25°C, pH 7.0, error = 95% CI
# OXA-48:P68A [14] = target: T1, OXA-48:P68A; assay: IC50 with nitrocefin as reporter substrate, OXA-48:P68A; assay type: biochemical; settings: P68A compared to native OXA-48
# crystal structure = target: the molecule itself; assay: crystal structure
molecule,measurement,setting,value
OXA-48 (Klebsiella pneumoniae),Km,[1],300 ± 150 µM
same,kcat,[1],3 ± 0.8 s⁻¹
same,kcat/Km,[1],10000 ± 8000 M⁻¹ s⁻¹
same,Km,[2],370 ± 70 µM
same,kcat,[2],608 ± 53 s⁻¹
same,kcat/Km,[2],1.64e+06 ± 455000 M⁻¹ s⁻¹
same,Km,[3],898 ± 155 µM
same,kcat,[3],3.9 ± 0.5 s⁻¹
same,kcat/Km,[3],4000 ± 1000 M⁻¹ s⁻¹
same,Km,[4],"1,678 ± 686 µM"
same,kcat,[4],1.7 ± 0.6 s⁻¹
same,kcat/Km,[4],1000 ± 800 M⁻¹ s⁻¹
same,Km,[5],13 ± 2 µM
same,kcat,[5],4.8 ± 0.2 s⁻¹
same,kcat/Km,[5],365000 ± 71000 M⁻¹ s⁻¹
same,Km,[6],4 ± 1 µM
same,kcat,[6],0.71 ± 0.02 s⁻¹
same,kcat/Km,[6],177000 ± 50000 M⁻¹ s⁻¹
same,Km,[7],226 ± 34 µM
same,kcat,[7],141 ± 12 s⁻¹
same,kcat/Km,[7],624000 ± 148000 M⁻¹ s⁻¹
"CO[C@@]1(NC(=O)C(C(=O)O)c2ccsc2)C(=O)N2[C@@H](C(=O)O)C(C)(C)S[C@@H]21 (some centres unmarked) [TRM, temocillin]",MIC,E. coli MG1655 (MP100),8 µg/mL
same,MIC,[8],256 µg/mL
same,MIC,E. coli TOP10,16 µg/mL
same,MIC,[9],256 µg/mL
same,MIC,[10],64 µg/mL
same,MIC,[11],128 µg/mL
same,MIC,[12],32 µg/mL
"CO/N=C(\C(=O)N[C@@H]1C(=O)N2C(C(=O)O)=C(COC(C)=O)CS[C@H]12)c1csc(N)n1 [FOT, cefotaxime]",MIC,E. coli MG1655 (MP100),0.12 µg/mL
same,MIC,[8],0.5 µg/mL
same,MIC,E. coli TOP10,0.12 µg/mL
same,MIC,[9],0.25 µg/mL
same,MIC,[10],0.25 µg/mL
same,MIC,[11],1 µg/mL
same,MIC,[12],0.25 µg/mL
"CC1(C)S[C@@H]2[C@H](NC(=O)[C@H](N)c3ccccc3)C(=O)N2[C@H]1C(=O)O [AMP, ampicillin]",kcat,OXA-48:P68A [13],25 ± 1 s⁻¹
same,Km,OXA-48:P68A [13]; read-out: Km,77 ± 12 µM
"C[C@@H](O)[C@H]1C(=O)N2C(C(=O)O)=C(S[C@@H]3CN[C@H](CNS(N)(=O)=O)C3)[C@H](C)[C@H]12 [DOR, doripenem]",MIC,E. coli MG1655 (MP100),0.015 µg/mL
same,MIC,[8],0.03 µg/mL
same,MIC,E. coli TOP10,0.03 µg/mL
same,MIC,[9],0.03 µg/mL
same,MIC,[10],0.03 µg/mL
same,MIC,[11],0.03 µg/mL
same,MIC,[12],0.03 µg/mL
"CO/N=C(\C(=O)N[C@@H]1C(=O)N2C(C(=O)O)=C(COC(N)=O)CS[C@H]12)c1ccco1 [CXM, cefuroxime]",MIC,E. coli MG1655 (MP100),8 µg/mL
same,MIC,[8],16 µg/mL
same,MIC,E. coli TOP10,16 µg/mL
same,MIC,[9],16 µg/mL
same,MIC,[10],16 µg/mL
same,MIC,[11],16 µg/mL
same,MIC,[12],8 µg/mL
"NC(=O)[C@@H]1CC[C@@H]2CN1C(=O)N2OS(=O)(=O)O [Avibactam, avibactam]",change in the inhibitory activity,OXA-48:P68A [14],no change
B1,binding result,crystal structure,binds
